In patent publication US20110045076A1, “LINEAR ORDER RELEASE POLYMER” (priority 2008, published 2011):

Experiments:
[1] = Stability of dapivirine under extrusion conditions (heating with LC/MS and NMR, DSC, extraction); type: physicochemical
Method: A series of experiments were conducted to confirm that dapivirine was stable in PU matrix in the extrusion process. First, the thermal stability of dapivirine at the extrusion temperature was examined and analyzed for its non-degradability as follows: dapivirine was heated at 185° C. isothermally for 2 h under air atmosphere and ^1H and ^13C NMR spectra were recorded (Mercury 400 MHz spectrometer, Varian) for the heated and unheated dapivirine. Furthermore, LC/MS analysis was performed on the heated sample and compared to non-heated controls. The MS instrumentation consisted of Micromass Quattro II Triple Quadruple Mass Spectrometer, Waters, Milford, Mass.
Second, a differential scanning calorimetric (DSC) scan was obtained on dapivirine from 25° C. to 230° C. at a heating rate of 10° C./min under air atmosphere with a flow rate of 40 mL/min (Model DSC821e, Mettler Toledo, Columbus, Ohio). To further confirm the stability of dapivirine in the presence of PU under extrusion conditions, DSC analyses were carried out for PU, dapivirine, and PU films loaded with dapivirine at a concentration of 200 mg/g. The high concentration of dapivirine was selected to enable detection of potential exothermic degradation peaks. The DSC spectrum was collected from 25° C. to 230° C. at the heating rate of 10° C./min as well as at an isothermal condition (175° C. for 10 minutes).
Finally, dapivirine was extracted and quantified from extruded rods and PU pellets (both SC and MM) prior to extrusion. The test samples (100 mg of ring segments or pellets) were dissolved in 2 mL of chloroform in a 50 mL centrifuge tube in triplicate followed by precipitation of the PU by addition of 25 mL of methanol using a volumetric flask. The polymer was separated by centrifugation (1600 RCF, 5 min) and the supernatant was quantified for dapivirine content by HPLC. The caps of the centrifuge tubes were closed tightly and wrapped with Teflon tape during the process to minimize evaporation. The efficiency of the extraction of dapivirine from the PU matrix using this method was determined by quantifying the extracted dapivirine content from controls of blank PU pellets (100 mg) to which known amount of dapivirine was added. The three controls used in triplicate were 1) 100 mg of PU pellets with 2 mg of dapivirine 2) 100 mg of PU pellets with 1 mg of dapivirine and 3) 100 mg of PU pellets with 0.25 mg of dapivirine. The mixtures of PU pellets and dapivirine were then subjected to the same precipitation process and dapivirine quantification as above. A linear calibration curve generated from standards of dapivirine in isopropanol (i-prOH) was utilized for quantification of dapivirine content from extracted samples.

[2] = In vitro release of dapivirine from PU-SC rods in 25:75 i-prOH:water; type: physicochemical
Method: The release profile of dapivirine was measured from PU-SC rods for a month after which the release kinetics from rings was evaluated for two weeks to determine the correlation of drug release rate from rods to that from rings. This may enable use of rods in place of rings for release kinetics evaluation thereby minimizing the scale of materials such as ring materials, quantity of drugs and volume of sink solutions required for release studies in case of monolithic IVRs. About 2 cm length segments were cut from the solid cross-sectional dapivirine loaded PU SC rods. The dimensions (length and diameter) and weight of each segment were recorded. […] HPLC analyses were performed every 2 to 5 days and the cumulative release was calculated by integrating the area under the curve using Kaleidagraph software (Synergy Software, Reading, Pa.). […] At the end of 30 days, the segments were wiped dry and the masses and dimensions of the segments were recorded. Similarly, dapivirine release kinetics were measured from rings (20 mg/g SC, 2.5 mg/g SC, 20 mg/g MM and 2.5 mg/g MM) incubated with 50 mL of 25:75 v/v i-prOH:water mixture as sink condition in 125 mL Erlenmeyer flasks with rubber septa […].
At the end of each release study, the swelling ratio was calculated by using the following equation […]

Compound: Cc1cc(C)c(Nc2ccnc(Nc3ccc(C#N)cc3)n2)c(C)c1 [dapivirine, 4-[[4-[(2,4,6-trimethylphenyl)amino]pyrimidin-2-yl]amino]benzonitrile]
- degradation in DSC thermogram of dapivirine ([1]; 25° C. to 230° C., 10° C./min, air): no detectable degradation
- degradation of dapivirine (LC/MS and NMR, heated vs non-heated) ([1]; 185° C. isothermally for 2 h under air): no detectable degradation
- degradation of dapivirine in PU under extrusion conditions (DSC) ([1]; PU films loaded with 200 mg/g, ramp 25 to 230° C. and isothermal 175° C., extrusion 165 to 175° C.): no detectable degradation
- dapivirine content recovered from extruded rods vs SC or MM pellets prior to extrusion ([1]; extraction, HPLC, p value>0.05, unpaired t-test): not significantly different
- solubility of dapivirine in PU matrix ([1]; from absence of the 220° C. melting endotherm in DSC of PU films loaded at 200 mg/g): > 200 mg/g
- release kinetics (order) ([2]; all loadings (2.5-20 mg/g), 25:75 i-prOH:water, 37° C., one month): zero order release kinetics
- loaded dapivirine released ([2]; at the end of 30 days): about 20%
